We go through 24 compounds from patent US20230365553A1, “COMPOUNDS AND COMPOSITIONS FOR TREATING CONDITIONS ASSOCIATED WITH STING ACTIVITY” (IFM Due, Inc., priority 2020, published 2023).

In general, EC50 refers to the midpoint of the concentration-response curve.

The test deals with T1, STING (Homo sapiens, UniProt Q86WV6, G230A/H232R/R293Q/R71H).
T1 construct: host or cells: THP1-Dual KO-IFNAR2 cells
The experiment in a line: STING reporter assay: luciferase reporter activity in THP1-Dual KO-IFNAR2 cells stimulated with 2′3′cGAMP. The note with it: 15 μM 2′3′cGAMP, 24h, read-out: hSTING EC50. Type of test: cell-based. The method, boiled down:
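THP1-Dual KO-IFNAR2 cells (2×10E6 cells/mL) were exposed to compounds at 0.0017-100 μM, then stimulated with 2′3′cGAMP (15 μM final) transfected via Lipofectamine 2000. After 24h at 37° C., secreted luciferase in supernatant was read by QUANTI-Luc luminescence; EC50 derived from concentration-response.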
Background: A reporter such as luciferase makes a cellular process visible.

T1 sequence (Q86WV6 whole entry R71H/G230A/H232R/R293Q): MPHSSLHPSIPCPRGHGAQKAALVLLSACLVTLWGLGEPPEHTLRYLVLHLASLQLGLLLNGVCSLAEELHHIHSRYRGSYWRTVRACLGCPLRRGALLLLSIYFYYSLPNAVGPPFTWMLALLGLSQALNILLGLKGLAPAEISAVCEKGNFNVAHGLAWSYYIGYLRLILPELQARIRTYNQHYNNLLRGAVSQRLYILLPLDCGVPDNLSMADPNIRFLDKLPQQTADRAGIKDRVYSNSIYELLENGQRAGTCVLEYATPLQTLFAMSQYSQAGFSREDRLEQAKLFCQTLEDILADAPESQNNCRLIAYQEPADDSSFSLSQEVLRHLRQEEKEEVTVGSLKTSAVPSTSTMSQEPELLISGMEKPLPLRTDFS

As for `CC1(C(=O)Nc2c[nH]c3ccc(-c4cnn(-c5ccc(C(F)(F)F)cc5)c4)cc23)COC1` [Compound 232, 3-methyl-N-(5-(1-(4-(trifluoromethyl)phenyl)-1H-pyrazol-4-yl)-1H-indol-3-yl)oxetane-3-carboxamide], the EC50 was in the range of 0.2 to 1 µM.

In the case of `O=C(Nc1c[nH]c2ccc(-c3cnn(-c4ccc(C(F)(F)F)cc4)c3)cc12)C1(F)CCOCC1` [Compound 233, 4-fluoro-N-(5-(1-(4-(trifluoromethyl)phenyl)-1H-pyrazol-4-yl)-1H-indol-3-yl)tetrahydro-2H-pyran-4-carboxamide], the EC50 was 0.2 to 1 µM.

With `O=C1CCC(C(=O)Nc2c[nH]c3ccc(-c4cnn(-c5ccc(C(F)(F)F)cc5)c4)cc23)=NN1` [Compound 234, 6-oxo-N-(5-(1-(4-(trifluoromethyl)phenyl)-1H-pyrazol-4-yl)-1H-indol-3-yl)-1,4,5,6-tetrahydropyridazine-3-carboxamide], the EC50 was in the range of 1 to 5 µM.

With `N#CC1(C(=O)Nc2c[nH]c3ccc(-c4cnn(-c5ccc(C(F)(F)F)cc5)c4)cc23)CC1` [Compound 235, 1-cyano-N-(5-(1-(4-(trifluoromethyl)phenyl)-1H-pyrazol-4-yl)-1H-indol-3-yl)cyclopropane-1-carboxamide], the EC50 is 1 to 5 µM.

For `O=C(Nc1c[nH]c2ccc(-c3cnn(-c4ccc(C(F)(F)F)cc4)c3)cc12)C1CC(F)(F)C1` [Compound 236, 3,3-difluoro-N-(5-(1-(4-(trifluoromethyl)phenyl)-1H-pyrazol-4-yl)-1H-indol-3-yl)cyclobutane-1-carboxamide], the EC50 is 0.2 to 1 µM.

`O=C(Nc1c[nH]c2ccc(-c3cnn(-c4ccc(C(F)(F)F)cc4)c3)cc12)C1CCC(F)(F)CC1` [Compound 237, 4,4-difluoro-N-(5-(1-(4-(trifluoromethyl)phenyl)-1H-pyrazol-4-yl)-1H-indol-3-yl)cyclohexane-1-carboxamide]: the EC50 is 0.2 to 1 µM.

For the compound `O=C(Nc1c[nH]c2ccc(-c3cnn(-c4ccc(C(F)(F)F)cc4)c3)cc12)C1(C(F)(F)F)CC1` [Compound 238, 1-(trifluoromethyl)-N-(5-(1-(4-(trifluoromethyl)phenyl)-1H-pyrazol-4-yl)-1H-indol-3-yl)cyclopropane-1-carboxamide], the EC50 was 1 to 5 µM.

`O=C(Nc1c[nH]c2ccc(-c3cnn(-c4ccc(C(F)(F)F)cc4)c3)cc12)C1CC1(F)F` (stereo not drawn) [Compound 239, 2,2-difluoro-N-(5-(1-(4-(trifluoromethyl)phenyl)-1H-pyrazol-4-yl)-1H-indol-3-yl)cyclopropane-1-carboxamide]: the EC50 was in the range of 0.2 to 1 µM.

Consider `CS(=O)(=O)CCC(=O)Nc1c[nH]c2ccc(-c3cnn(-c4ccc(C(F)(F)F)cc4)c3)cc12` [Compound 240, 3-(methylsulfonyl)-N-(5-(1-(4-(trifluoromethyl)phenyl)-1H-pyrazol-4-yl)-1H-indol-3-yl)propanamide], for which the EC50 fell in the range of 0.2 to 1 µM.

Take `O=C(Nc1c[nH]c2ccc(-c3cnn(-c4ccc(C(F)(F)F)cc4)c3)cc12)C1(F)CCC1` [Compound 241, 1-fluoro-N-(5-(1-(4-(trifluoromethyl)phenyl)-1H-pyrazol-4-yl)-1H-indol-3-yl)cyclobutane-1-carboxamide]: the EC50 lay within 0.2 to 1 µM.

Take `O=C(Nc1c[nH]c2ccc(-c3cnn(-c4ccc(C(F)(F)F)cc4)c3)cc12)C1CC(O)C1` (stereo not drawn) [Compound 242, 3-hydroxy-N-(5-(1-(4-(trifluoromethyl)phenyl)-1H-pyrazol-4-yl)-1H-indol-3-yl)cyclobutane-1-carboxamide]: the EC50 was 0.2 to 1 µM.

Consider `C[C@@H](c1cccc(C(F)(F)F)c1)n1cc(-c2ccc3[nH]cc(NC(=O)C4CCC4)c3c2)cn1` [Compound 243, (S)-N-(5-(1-(1-(3-(trifluoromethyl)phenyl)ethyl)-1H-pyrazol-4-yl)-1H-indol-3-yl)cyclobutanecarboxamide], for which the EC50 fell in the range of 0.2 to 1 µM.

In the case of `CC(=O)Nc1c[nH]c2ccc(-c3cnn(-c4ccc(C(F)(F)F)cc4)c3)cc12` [Compound 245, N-(5-(1-(4-(trifluoromethyl)phenyl)-1H-pyrazol-4-yl)-1H-indol-3-yl)acetamide], the EC50 fell in the range of 0.04 to 0.2 µM.

As to `CC(=O)N(C)c1c[nH]c2ccc(-c3cnn(-c4ccc(C(F)(F)F)cc4)c3)cc12` [Compound 246, N-methyl-N-(5-(1-(4-(trifluoromethyl)phenyl)-1H-pyrazol-4-yl)-1H-indol-3-yl)acetamide], the concentration for a half-maximal effect (EC50) fell in the range of 5 to 100 µM.

On to `O=C(Nc1c[nH]c2ccc(-c3cnn(-c4ccc(C(F)(F)F)cc4)c3)cc12)C1CN(CC(F)(F)F)C1` [Compound 247, 1-(2,2,2-trifluoroethyl)-N-(5-(1-(4-(trifluoromethyl)phenyl)-1H-pyrazol-4-yl)-1H-indol-3-yl)azetidine-3-carboxamide], for which the EC50 fell in the range of 0.2 to 1 µM.

Consider `CCC(=O)Nc1c[nH]c2ccc(-c3cnn(-c4cnc(CC)cn4)c3)cc12` [Compound 248, N-(5-(1-(5-ethylpyrazin-2-yl)-1H-pyrazol-4-yl)-1H-indol-3-yl)propionamide], for which the EC50 lay within 1 to 5 µM.

As to `CN1CC(C(=O)Nc2c[nH]c3ccc(-c4cnn(-c5ccc(C(F)(F)F)cc5)c4)cc23)CC1=O` (stereo not drawn) [Compound 249, 1-methyl-5-oxo-N-(5-(1-(4-(trifluoromethyl)phenyl)-1H-pyrazol-4-yl)-1H-indol-3-yl)pyrrolidine-3-carboxamide], the EC50 was 1 to 5 µM.

As for `CC(=O)Nc1c[nH]c2ccc(-c3cnn(Cc4cnc(C5CCC(F)(F)CC5)c(F)c4)c3)cc12` [Compound 250, N-(5-(1-((6-(4,4-difluorocyclohexyl)-5-fluoropyridin-3-yl)methyl)-1H-pyrazol-4-yl)-1H-indol-3-yl)acetamide], the EC50 lay in the range of 5 to 100 µM.

For `O=C(Nc1c[nH]c2ncc(-c3cnn(-c4ccc(C(F)(F)F)cc4)c3)cc12)C1CCC1` [Compound 251, N-(5-(1-(4-(trifluoromethyl)phenyl)-1H-pyrazol-4-yl)-1H-pyrrolo[2,3-b]pyridin-3-yl)cyclobutanecarboxamide], the EC50 was 5 to 100 µM.

`CN1C(=O)CCC1C(=O)Nc1c[nH]c2ccc(-c3cnn(-c4ccc(C(F)(F)F)cc4)c3)cc12` (stereo not drawn) [Compound 252, 1-methyl-5-oxo-N-(5-(1-(4-(trifluoromethyl)phenyl)-1H-pyrazol-4-yl)-1H-indol-3-yl)pyrrolidine-2-carboxamide]: the EC50 lay within 1 to 5 µM.

In the case of `O=C(Nc1c[nH]c2ccc(-c3cnn(Cc4ccc(C(F)(F)F)cn4)c3)cc12)C1CCC1` [Compound 253, N-(5-(1-((5-(trifluoromethyl)pyridin-2-yl)methyl)-1H-pyrazol-4-yl)-1H-indol-3-yl)cyclobutanecarboxamide], the EC50 was 0.2 to 1 µM.

As to `CN1CCC1C(=O)Nc1c[nH]c2ccc(-c3cnn(-c4ccc(C(F)(F)F)cc4)c3)cc12` (stereo not drawn) [Compound 254, 1-methyl-N-(5-(1-(4-(trifluoromethyl)phenyl)-1H-pyrazol-4-yl)-1H-indol-3-yl)azetidine-2-carboxamide], the EC50 fell in the range of 5 to 100 µM.

As to `O=C(Nc1c[nH]c2cnc(-c3cnn(-c4ccc(C(F)(F)F)cc4)c3)cc12)C1CCC1` [Compound 255, N-(5-(1-(4-(trifluoromethyl)phenyl)-1H-pyrazol-4-yl)-1H-pyrrolo[2,3-c]pyridin-3-yl)cyclobutanecarboxamide], the EC50 was 5 to 100 µM.

Consider `CCC(=O)Nc1c[nH]c2ccc(-c3cnn(-c4ccc(C(F)(F)F)c(COC)c4)c3)cc12` [Compound 256, N-(5-(1-(3-(methoxymethyl)-4-(trifluoromethyl)phenyl)-1H-pyrazol-4-yl)-1H-indol-3-yl)propionamide], for which the EC50 lay within 1 to 5 µM.
